Laboratory results taken from paper PMC8726015 (ACS chemical biology, 2021).

Tests used:
[1] = target: T1, human phosphopantothenoylcysteine synthetase (hPPCS) (Homo sapiens, UniProt Q9HAB8); experiment: X-ray crystal structure at […] Å; type: binding
[2] = target: T2, human pantothenate kinase hPANK1β (Homo sapiens, UniProt Q8TE04); experiment: PK/LDH-coupled kinase assay, substrate turnover; type: biochemical; conditions: read-out: KM or K0.5
T2 sequence (Q8TE04 1-373 isoform Q8TE04-2): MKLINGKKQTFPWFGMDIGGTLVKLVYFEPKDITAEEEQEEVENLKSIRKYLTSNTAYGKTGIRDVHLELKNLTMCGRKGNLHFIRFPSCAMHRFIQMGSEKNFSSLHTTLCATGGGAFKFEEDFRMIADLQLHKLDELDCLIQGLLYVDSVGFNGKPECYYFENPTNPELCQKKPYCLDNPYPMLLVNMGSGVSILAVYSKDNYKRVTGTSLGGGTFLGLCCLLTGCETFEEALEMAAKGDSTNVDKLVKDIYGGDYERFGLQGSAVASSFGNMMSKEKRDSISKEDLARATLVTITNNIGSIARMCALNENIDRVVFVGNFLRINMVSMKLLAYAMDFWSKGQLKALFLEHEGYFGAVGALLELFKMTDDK

[3] = target: T1, human phosphopantothenoylcysteine synthetase (hPPCS); experiment: X-ray crystal structure at […] Å; type: biochemical
[4] = target: T3, fruit fly phosphopantothenoylcysteine synthetase (dPPCS) (Drosophila melanogaster, UniProt Q7KN99); experiment: pyrophosphate-coupled NADH oxidation enzyme assay; type: biochemical
T3 sequence (Q7KN99 1-313): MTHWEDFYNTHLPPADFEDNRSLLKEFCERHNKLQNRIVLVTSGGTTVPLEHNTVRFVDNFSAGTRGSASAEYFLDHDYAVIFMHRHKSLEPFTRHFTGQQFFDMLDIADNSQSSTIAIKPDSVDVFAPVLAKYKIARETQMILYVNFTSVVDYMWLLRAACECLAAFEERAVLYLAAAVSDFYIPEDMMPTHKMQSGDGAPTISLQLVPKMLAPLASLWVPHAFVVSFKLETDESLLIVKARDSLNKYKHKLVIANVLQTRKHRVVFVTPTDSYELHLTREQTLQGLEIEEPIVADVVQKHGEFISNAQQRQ

T1 sequence (Q9HAB8 2-311): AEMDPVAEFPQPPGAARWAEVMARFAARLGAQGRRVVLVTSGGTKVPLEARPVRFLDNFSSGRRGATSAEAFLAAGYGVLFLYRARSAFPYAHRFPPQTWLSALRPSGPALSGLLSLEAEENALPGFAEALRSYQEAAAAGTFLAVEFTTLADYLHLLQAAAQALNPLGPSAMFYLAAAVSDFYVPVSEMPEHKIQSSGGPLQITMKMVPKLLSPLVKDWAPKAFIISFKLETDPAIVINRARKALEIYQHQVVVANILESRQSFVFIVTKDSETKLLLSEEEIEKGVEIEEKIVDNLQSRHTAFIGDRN

| Km [2] [µM] | SMILES | also measured |
| --- | --- | --- |
| – | Nc1ncnc2c1ncn2[C@@H]1O[C@H](CO[P@](=O)(O)O[P@](=O)(O)NP(=O)(O)O)[C@@H](O)[C@H]1O [AMPPNP] | X-ray crystal structure at 1.9 Å (ternary complex with P-HoPan) [1]: electron densities for the co-factor AMPPNP and the ligand P-HoPan observed in both monomers |
| 12.1 ± 1.9 | CC(C)(CO)[C@@H](O)C(=O)NCCCC(=O)O [compound 1, HoPan] | – |
| – | CC(C)(COP(=O)(O)O)[C@@H](O)C(=O)NCCCC(=O)O [compound 2, P-HoPan] | Ki [3]: 13.4 ± 3.6 µM; Ki [4]: 20.9 ± 1.1 µM |
| 6.2 ± 0.88 | CC(C)(CO)[C@@H](O)C(=O)NCCC(=O)O [compound 3, Pan] | – |
| 9.85 ± 1.17 | CC(C)(CO)[C@@H](O)C(=O)NCCC(=O)NCCS [compound 6, PantSH] | – |
